Read-outs that look alike come from different tables or passages of the source.
Experiments:
Type in all cases: cell-based, mouse
[1] = test system: p-Smad nuclear translocation; assay: Immunofluorescent labeling of p-Smad nuclear translocation; conditions: 1 µM, 30 min
Method: Serum-starved C2C12 cells grown on poly-D-lysine (PDL)-coated coverslips were stimulated with BMP2 (50 ng/mL), SY-LB-35 (1 µM) or SY-LB-57 (1 µM) for 30 min.
In a 24-well plate, 12 mm glass coverslips were coated for 1 h at RT with 500 µL PDL (0.1 mg/mL/ 0.1 M Boric acid), washed 4 times with cell culture-grade distilled water and sterilized under UV light for 30 min. C2C12 cells (500 µL) were seeded onto the PDL-coated coverslips at a density of 1 × 10^5 cells/mL, grown to 80% confluency and starved in SS medium for 2 h. Next, the cells were treated with 50 ng/mL BMP2 or 1 µM SY-LB-35 or SY-LB-57 for 15 min (for p-Akt labelling) or 30 min (for p-Smad labelling). Cells were then fixed using ice-cold 4% PFA/PBS for 10 min at RT. Next, the coverslips were washed with ice-cold 1X PBS, transferred to a humidified chamber and incubated (100 µL/coverslip) in Permeabilization solution (0.1% Triton X-100/PBS) for 15 min, then Blocking Buffer (10% heat inactivated goat serum/ 0.3% Triton X-100/PBS) for 30 min. Anti-p-Smad antibodies in Antibody Dilution Buffer (1% BSA/0.1% Tween 20/PBS) were added for 1 h and the coverslips were washed 4 times with 1X PBS. The Cy3-conjugated goat anti-rabbit IgG secondary antibodies (Jackson Immuno Research Labs, West Grove, PA, USA) in Antibody Dilution Buffer were added for 1 h followed by 4 washes with 1X PBS and once with dH2O. […]

[2] = test system: PI3K enzyme; assay: PI3K ELISA on PI3K immunoprecipitated from treated cells; conditions: 10 µM, 15 min; for Amount of PIP3 produced by PI3K enzyme: control 0.61 pmol
Method: PI3K enzyme was immunoprecipitated and processed in a PI3K ELISA (Fig. 7B). […] The enzyme activity is expressed as the amount of product (PIP3) generated in each sample by the PI3K enzyme per minute of reaction.
C2C12 cells were seeded in 35-mm dishes at 7 × 10^4 cells/mL and incubated at 37 °C in 5% CO2 to reach 80% confluency. […] Cells (~ 10^6) per treatment were collected to prepare whole cell lysates followed by exposure to three freeze/thaw cycles in liquid nitrogen. The samples were centrifuged and PI3K enzyme was immunoprecipitated with a mouse monoclonal anti-PI3K p55 γ antibody ((E-9), Santa Cruz Biotechnology, Dallas, TX, USA) for 1 h at 4 °C with gentle rocking and the immune complexes were collected overnight on a rocking platform at 4 °C with Dynabeads™ Protein A (Life Technologies, Carlsbad, CA, USA). The next day, the immunoprecipitated PI3K enzyme was collected by centrifugation processed for a PI3K ELISA (Echelon Biosciences, Salt Lake, City, UT, USA) according to the manufacturer’s instructions. Standard solutions of PIP3 (0, 0.22, 0.67, 2, 6, 18, and 54 pmol) were added to kinase reactions using recombinant PI3K enzyme (Echelon Biosciences, Salt Lake, City, UT, USA) and used to generate a standard curve for production of PIP3. The optical density of the PIP3 standards and the reactions containing immunoprecipitated PI3K from treated samples was measured at 450 nm.

[3] = test system: p-JNK; assay: Western blot of p-JNK; conditions: 0.01–10 µM, 15 min
Method: Whole cell lysates were prepared from the treated cultures for Western blot analysis.
C2C12 cells (3 mL) were seeded into 35 mm dishes at 7.5 × 10^4 cells/mL in complete growth medium, incubated to reach 80% confluence and serum-starved for 16–18 h. […] Thereafter, the cultures were washed with ice-cold 1X TBS for 2 min. Lysis Buffer (Cell Signaling Technology, Danvers, MA, USA) supplemented with 1 mM PMSF (phenylmethylsulphonyl fluoride) was added to the cultures and whole cell lysates were prepared.
Laemmli sample buffer (4X) was added to the whole cell lysates (20 µg) to a final concentration of 1X and heated at 100 °C for 5 min. The samples were immediately cooled on ice for 5 min and centrifuged at 9500 rpm for 2 min at RT. The samples and the Precision Plus Protein Standard (5 µL; Bio-Rad, Hercules, CA, USA) were loaded on 12% SDS polyacrylamide gels. […] Finally, the blots were developed using SuperSignal ™ West Femto HRP Substrate solutions (Thermo Scientific, Rockford, IL, USA) and analysed using the Omega Lum™ G Imaging System (San Francisco, CA, USA). Quantification of chemiluminescent signals was carried out using ImageJ (Image Processing and Analysis in Java 1.8.0_112).

[4] = Cell viability assay in presence or absence of Dorsomorphin; conditions: mouse, serum-starved C2C12 cells
Method: To resolve whether the SY-LB-35 or SY-LB-57 compound requires type I BMP receptor activity for the induction of cell viability in C2C12 cells, cell viability assays were carried out in the presence or absence of 10 µM DM.
C2C12 cells (100 µL) were seeded in a 96-well plate at 5 × 10^5 cells/mL and incubated overnight in complete growth media to achieve 80% confluency followed by serum-starvation for 16–18 h. […] For BMP receptor inhibition, cell viability assays were carried out in presence or absence of Dorsomorphin (DM; 10 µM; Sigma Aldrich, St. Louis, MO, USA), a non-selective inhibitor of type I BMP receptor activity.
Next, reagents from the RealTime-Glo™ MT Cell Viability Assay Kit (Promega, Madison, WI, USA) were diluted in SS medium and used according to manufacturer’s protocol. Cellular luminescence was measured using the FilterMax F5 Multi-mode Microplate Reader (Molecular Devices, San Jose, CA, USA). Data from three independent experiments with individual experiments carried out in triplicate was determined and reported as a percentage of control.

[5] = Dorsomorphin 10 µM, read-out: Cell viability, DM(+)
[6] = without Dorsomorphin, read-out: Cell viability, DM(−)

Row | SMILES | p-Smad nuclear translocation [1] | PIP3 produced, higher compared to control untreated cells [2] [%] | Amount of PIP3 produced by PI3K enzyme [2] [pmol] | p-JNK level [3] | viability at 24 h, 0.01 µM [4, 5] [%] | viability at 24 h, 0.01 µM [4, 6] [%] | viability at 24 h, 0.1 µM [4, 5] [%] | viability at 24 h, 0.1 µM [4, 6] [%] | viability at 24 h, 1 µM [4, 5] [%] | viability at 24 h, 1 µM [4, 6] [%] | viability at 24 h, 10 µM [4, 5] [%] | viability at 24 h, 10 µM [4, 6] [%] | viability at 24 h, 100 µM [4, 5] [%] | viability at 24 h, 100 µM [4, 6] [%]
1 | Oc1ccc2[nH]c(-c3nc4ccccc4[nH]3)cc2c1 [SY-LB-35] | induced the translocation of p-Smad into the nucleus | 26 | 0.77 | stimulated increases | 98 | 266 | 103 | 269 | 102 | 218 | 82 | 147 | 30 | 69
2 | COc1ccc2[nH]c(-c3nc4ccccc4[nH]3)cc2c1 [SY-LB-57] | induced the translocation of p-Smad into the nucleus | 26 | 0.77 | stimulated increases | 120 | 384 | 107 | 380 | 111 | 321 | 111 | 289 |  | 

Source: PMC9287337 (Scientific Reports, 2022)
